In patent publication US20220235065A1 (Epizyme, Inc., priority 2016, published 2022):

Columns and labels:
[1] = molecular target: T1, EHMT1 (Homo sapiens, UniProt Q9H9B1); experiment: EHMT1 PEP (EHMT1 peptide enzyme assay); type: biochemical; settings: peptide substrate enzyme assay
T1 sequence (Q9H9B1 1-1298): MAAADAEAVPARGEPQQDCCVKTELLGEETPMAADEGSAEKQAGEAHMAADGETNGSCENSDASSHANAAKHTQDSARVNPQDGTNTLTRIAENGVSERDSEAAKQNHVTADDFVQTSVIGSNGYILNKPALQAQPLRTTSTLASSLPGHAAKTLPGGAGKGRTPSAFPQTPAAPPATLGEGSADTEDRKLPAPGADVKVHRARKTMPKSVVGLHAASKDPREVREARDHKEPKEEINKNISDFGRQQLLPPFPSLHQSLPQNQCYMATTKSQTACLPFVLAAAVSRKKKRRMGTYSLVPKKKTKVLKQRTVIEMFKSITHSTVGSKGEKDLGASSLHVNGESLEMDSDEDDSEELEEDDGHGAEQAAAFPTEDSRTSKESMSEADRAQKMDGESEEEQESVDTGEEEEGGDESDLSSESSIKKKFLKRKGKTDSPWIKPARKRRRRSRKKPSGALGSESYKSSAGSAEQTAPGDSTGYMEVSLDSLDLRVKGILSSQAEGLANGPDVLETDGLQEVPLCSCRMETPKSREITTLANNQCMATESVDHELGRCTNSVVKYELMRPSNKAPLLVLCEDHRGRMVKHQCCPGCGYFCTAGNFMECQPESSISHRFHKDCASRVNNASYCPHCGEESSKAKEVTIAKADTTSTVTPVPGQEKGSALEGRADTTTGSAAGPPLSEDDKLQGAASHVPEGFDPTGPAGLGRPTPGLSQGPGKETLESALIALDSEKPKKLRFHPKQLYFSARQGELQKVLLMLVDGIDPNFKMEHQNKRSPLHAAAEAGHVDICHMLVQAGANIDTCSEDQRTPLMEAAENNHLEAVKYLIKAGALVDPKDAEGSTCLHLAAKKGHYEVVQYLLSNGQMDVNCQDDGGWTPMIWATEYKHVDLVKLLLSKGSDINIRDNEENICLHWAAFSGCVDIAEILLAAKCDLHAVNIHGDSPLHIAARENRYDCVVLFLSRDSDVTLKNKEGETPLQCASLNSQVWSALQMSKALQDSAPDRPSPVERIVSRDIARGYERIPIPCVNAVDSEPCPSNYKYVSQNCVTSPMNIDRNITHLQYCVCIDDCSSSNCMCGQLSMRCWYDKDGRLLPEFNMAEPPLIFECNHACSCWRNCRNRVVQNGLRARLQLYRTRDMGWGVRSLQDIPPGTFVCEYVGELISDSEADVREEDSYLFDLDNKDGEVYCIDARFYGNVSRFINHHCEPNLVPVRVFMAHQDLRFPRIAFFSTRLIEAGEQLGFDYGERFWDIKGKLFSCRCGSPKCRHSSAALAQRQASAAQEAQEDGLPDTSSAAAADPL

[2] = system: H3K9me2 in MDA-MB-231 cells; experiment: MDA-MB-231 H3K9me2 in-cell western assay; type: cell-based; settings: Homo sapiens, read-out: EHMT2 ICW (IC50 μM)
Source text: MDA-MB-231 cell line was purchased from ATCC (Manassas, Va., USA). RPMI/Glutamax medium, Penicillin-Streptomycin, Heat Inactivated Fetal Bovine Serum, and D-PBS were purchased from Life Technologies (Grand Island, N.Y., USA). Odyssey blocking buffer, 800CW goat anti-mouse IgG (H+L) antibody, and Licor Odyssey Infrared Scanner were purchased from Licor Biosciences, Lincoln, Nebr., USA. H3K9me2 mouse monoclonal antibody (Cat #1220) was purchased from Abcam (Cambridge, Mass., USA). 16% Paraformaldehyde was purchased from Electron Microscopy Sciences, Hatfield, Pa., USA). MDA-MB-231 cells were maintained in complete growth medium (RPMI supplemented with 10% v/v heat inactivated fetal bovine serum) and cultured at 37° C. under 5% CO2. UNC0638 was purchased from Sigma-Aldrich (St. Louis, Mo., USA).
General Procedure for MDA-MB-231 HEK9me2 In-Cell Western Assay.
Compound (100 nL) was added directly to 384-well cell plate. MDA-MB-231 cells (ATCC) were seeded in assay medium (RPMI/Glutamax supplemented with 10% v/v heat inactivated fetal bovine serum and 1% Penicillin/Streptomycin, Life Technologies) at a concentration of 3,000 cells per well to a Poly-D-Lysine coated 384-well cell culture plate with 50 μL per well. Plates were incubated at 37° C., 5% CO2 for 48 hours (BD Biosciences 356697). Plates were incubated at room temperature for 30 minutes and then incubated at 37° C., 5% CO2 for additional 48 hours. After the incubation, 50 μL per well of 8% paraformaldehyde (Electron Microscopy Sciences) in PBS was added to the plates and incubated at room temperature for 20 minutes. Plates were transferred to a Biotek 406 plate washer and washed 2 times with 100 μL per well of wash buffer (1×PBS containing 0.3% Triton X-100 (v/v)). Next, 60 μL per well of Odyssey blocking buffer (Licor Biosciences) was added to each plate and incubated for 1 hour at room temperature. Blocking buffer was removed and 20 μL of monoclonal primary antibody α-H3K9me2 (Abcam) diluted 1:800 in Odyssey buffer with 0.1% Tween 20 (v/v) were added and plates were incubated overnight (16 hours) at 4° C. Plates were washed 5 times with 100 μL per well of wash buffer. Next 20 μL per well of secondary antibody was added (1:500 800CW […] anti-mouse IgG (H+L) antibody (Licor Biosciences), 1:1000 DRAQ5 (Cell Signaling Technology) in Odyssey buffer with 0.1% Tween 20 (v/v)) and incubated for 1 hour at room temperature. The plates were washed 5 times with 100 μL per well wash buffer then 2 times with 100 μL per well of water. Plates were allowed to dry at room temperature then imaged on a Licor Odyssey Infrared Scanner (Licor Biosciences) which measured integrated intensity at 700 nm and 800 nm wavelengths. Both 700 and 800 channels were scanned.
% Inhibition Calculation.
First, the ratio for each well was determined by
Each plate included fourteen control wells of DMSO only treatment (Minimum Inhibition) as well as fourteen control wells (background wells) for maximum inhibition treated with control compound UNC0638 (Background wells).
The average of the ratio values for each well was calculated and used to determine the percent inhibition for each test well in the plate. Control compound was serially diluted three-fold in DMSO for a total of 10 test concentrations beginning at 1 μM. Percent inhibition was calculated as: […]
IC50 curves were generated using triplicate wells per concentration of compound. The IC50 is the concentration of compound at which measured methylation is inhibited by 50% as interpolated from the dose response curves. IC50 values were calculated using a non-linear regression (variable slope-four parameter fit model) with by the following formula
where Top is fixed at 100% and Bottom is fixed to 0%, [I]=concentration of inhibitor, IC50=half maximal inhibitory concentration and n=Hill Slope.

Compound	IC50 [1] [µM]	IC50 [2] [µM]
CNCc1cnn(-c2cc3c(cc2OC)C2(CCC2)C(NC)=N3)c1 [Compound 187]	< 0.1	0.1 to 1
CNc1cc(C)nc(Nc2cnc(OC)c(-n3cc(C4CCCN4)cn3)c2)n1 (centres unmarked) [Compound 188]	0.1 to 1	1 to 10
CNc1ccnc(Nc2ccc(OC)c(-n3cc(CNC4CCC4)nn3)c2)n1 [Compound 191]	0.1 to 1	> 10
CNC1=Nc2cc(-n3cc([C@H]4CCCN4)nn3)c(OC)cc2C12CCC2 [Compound 192]	< 0.1	0.1 to 1
COc1cc2c(cc1-n1cc([C@H]3CCCN3)nn1)N=C(N)C21CCC1 [Compound 193]	< 0.1	0.1 to 1
COc1cc2c(cc1-n1cc(C3CCCN3)nn1)N=C(N)C21CCC1 (centres unmarked) [Compound 194]	< 0.1	0.1 to 1
COc1cc2c(cc1-n1cc([C@@H]3CCCN3)nn1)N=C(N)C21CCC1 [Compound 195]	0.1 to 1	1 to 10
CNc1cc(C2CCOCC2)c2cc(OC)c(-n3cc(C4CCCN4)nn3)cc2n1 (centres unmarked) [Compound 196]	0.1 to 1	1 to 10
CNc1cc(C)nc(Nc2ccc(OC)c(-c3[nH]c4cnccc4c3F)c2)n1 [Compound 199]	< 0.1	1 to 10
CNc1cc(C)nc(Nc2ccc(OC)c(-c3[nH]c4cnccc4c3C)c2)n1 [Compound 200, N2-(4-methoxy-3-(3-methyl-1H-pyrrolo[2,3-c]pyridin-2-yl)phenyl)-N4,6-dimethylpyrimidine-2,4-diamine]	< 0.1	< 0.1
CNc1cc(C)nc(Nc2ccc(OC)c(-c3cc4ncncc4[nH]3)c2)n1 [Compound 201]	1 to 10	> 10
COc1cc2c(cc1-c1cc3ccncc3[nH]1)N=C(N)C21CCC1 [Compound 202]	< 0.1	1 to 10
CNc1cc(C)nc(Nc2cnc(OC)c(-c3cc4ccncc4[nH]3)c2)n1 [Compound 204]	1 to 10	> 10
COc1cc(NC2CCNCC2)ncc1-c1cc2ccncc2[nH]1 [Compound 205]	1 to 10	> 10
CNc1cc(C)nc(Nc2ccc(OC)c(-c3cc4[nH]ccc4cn3)c2)n1 [Compound 206, N2-(4-methoxy-3-(1H-pyrrolo[3,2-c]pyridin-6-yl)phenyl)-N4,6-dimethylpyrimidine-2,4-diamine]	< 0.1	< 0.1
CNc1cc(C)nc(Nc2ccc(OC)c(-c3cc4[nH]c(C)cc4cn3)c2)n1 [Compound 207]	< 0.1	0.1 to 1
COc1cc(NC2CCNCC2)ncc1-c1cc2[nH]ccc2cn1 [Compound 208]	1 to 10	> 10
CNc1nc2cc(-c3cc4[nH]ccc4cn3)c(OC)cc2n1C [Compound 209]	0.1 to 1	> 10
CNc1cc(C)nc(Nc2ccc(OC)c(-c3cc4[nH]cnc4cn3)c2)n1 [Compound 210]	< 0.1	1 to 10
CNc1cc(C)nc(Nc2ccc(OC)c(-n3cc([C@@H]4CCCN4)nn3)c2)n1 [Compound 212, (S)—N2-(4-methoxy-3-(4-(pyrrolidin-2-yl)-1H-1,2,3-triazol-1-yl)phenyl)-N4,6-dimethylpyrimidine-2,4-diamine]	< 0.1	0.1 to 1
CNc1cc(C)nc(Nc2ccc(OC)c(-n3cc([C@H]4CCCN4)nn3)c2)n1 [Compound 213]	< 0.1	0.1 to 1
CNC1=Nc2cc(-c3cc4[nH]ccc4cn3)c(OC)cc2C12CCC2 [Compound 214]	< 0.1	0.1 to 1
CNC1=Nc2cc(-c3cc4ccncc4[nH]3)c(OC)cc2C12CCC2 [Compound 215]	< 0.1	0.1 to 1
CNC1=Nc2cc(-c3[nH]c4cnccc4c3Cl)c(OC)cc2C12CCC2 [Compound 216]	< 0.1	0.1 to 1
CNc1cc(C)nc(Nc2ccc(OC)c(-c3ccc4c(c3)NC(=O)C4)c2)n1 [Compound 218]	> 10	1 to 10

Next, values leading:

IC50 [1] [µM]	IC50 [2] [µM]	Compound
0.1 to 1	> 10	CNc1cc(C)nc(Nc2ccc(OC)c(-c3cc4c(cn3)CC(=O)N4)c2)n1 [Compound 219]
1 to 10	> 10	CNc1cc(C)nc(Nc2ccc(OC)c(-c3cc4[nH]ccc4cn3)c2OC)n1 [Compound 220]
< 0.1	0.1 to 1	CNc1cc(C)nc(Nc2ccc(OC)c(-c3cc4[nH]ccc4cn3)c2F)n1 [Compound 221]
< 0.1	0.1 to 1	CNCc1cnn(-c2c(OC)ccc(Nc3nc(C)cc(NC)n3)c2OC)c1 [Compound 222]
< 0.1	0.1 to 1	CNc1cc(C)nc(Nc2ccc(OC)c(-c3cnc4cc[nH]c4c3)c2)n1 [Compound 223]
< 0.1	1 to 10	CNc1cc(-c2cc(Nc3nc(C)cc(NC)n3)ccc2OC)ncn1 [Compound 225]
< 0.1	0.1 to 1	CNc1cc(C)nc(Nc2ccc(OC)c(-c3cc4[nH]ccc4nc3C)c2)n1 [Compound 228]
< 0.1	0.1 to 1	CNc1cc(C)nc(Nc2ccc(OC)c(-c3cc4[nH]cc(F)c4cn3)c2)n1 [Compound 229]
< 0.1	1 to 10	CNc1cc(-c2cc(Nc3nc(C)cc(NC)n3)ccc2OC)nc(C)n1 [Compound 230]
1 to 10	> 10	COc1cc(NC2CCNCC2)ccc1-c1cc2[nH]ccc2cn1 [Compound 231]
1 to 10	1 to 10	CNc1cc(C)nc(Nc2ccc(OC)c(-c3cc(C4CC4)ncn3)c2)n1 [Compound 232]
0.1 to 1	1 to 10	CNc1cc(C)nc(Nc2ccc(OC)c(-c3cc(C4CC4)cnn3)c2)n1 [Compound 233]
